Experiments:
Assay type in all cases: biochemical
Itk = biological target: T1, Itk (Homo sapiens, UniProt Q08881); test: ITK Inhibition Assay (Radiometric), radioactive-phosphate incorporation; conditions: enzyme inhibition data (Ki), Table 11; radiometric or UV assay not stated
T1 sequence (Q08881 1-620): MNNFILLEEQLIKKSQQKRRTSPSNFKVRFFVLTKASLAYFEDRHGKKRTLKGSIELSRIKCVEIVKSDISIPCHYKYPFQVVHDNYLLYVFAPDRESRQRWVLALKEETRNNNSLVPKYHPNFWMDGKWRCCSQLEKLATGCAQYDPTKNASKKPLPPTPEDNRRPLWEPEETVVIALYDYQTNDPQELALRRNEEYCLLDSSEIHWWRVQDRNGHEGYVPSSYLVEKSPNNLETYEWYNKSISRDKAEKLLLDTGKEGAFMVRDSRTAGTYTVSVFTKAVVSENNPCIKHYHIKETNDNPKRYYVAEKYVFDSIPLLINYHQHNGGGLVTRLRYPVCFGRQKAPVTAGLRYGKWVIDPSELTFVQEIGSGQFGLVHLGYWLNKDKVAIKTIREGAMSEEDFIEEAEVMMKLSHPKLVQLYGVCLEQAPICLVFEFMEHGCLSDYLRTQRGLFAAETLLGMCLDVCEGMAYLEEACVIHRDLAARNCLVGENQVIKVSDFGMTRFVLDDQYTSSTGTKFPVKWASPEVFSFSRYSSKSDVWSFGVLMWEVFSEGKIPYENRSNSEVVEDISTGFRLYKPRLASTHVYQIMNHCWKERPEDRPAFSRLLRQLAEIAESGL
Procedure, shortened: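 Radiometric 33P incorporation into SAM68 peptide (D332-443) with filter capture and scintillation counting; 10 min pre-incubation then 10 min reaction at 25° C. IC50 format: 30 nM Itk, 15 μM ATP, 2 μM peptide, HEPES pH 7.5. Ki(app) format: 50 nM Itk, 7.5 μM ATP, 3 μM peptide, MOPS pH 7.0.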

JAK3 = biological target: T2, JAK3 (Homo sapiens, UniProt P52333); test: JAK3 Inhibition Assay, 33P incorporation; conditions: enzyme inhibition data (Ki), Table 11
T2 sequence (P52333 1-1124): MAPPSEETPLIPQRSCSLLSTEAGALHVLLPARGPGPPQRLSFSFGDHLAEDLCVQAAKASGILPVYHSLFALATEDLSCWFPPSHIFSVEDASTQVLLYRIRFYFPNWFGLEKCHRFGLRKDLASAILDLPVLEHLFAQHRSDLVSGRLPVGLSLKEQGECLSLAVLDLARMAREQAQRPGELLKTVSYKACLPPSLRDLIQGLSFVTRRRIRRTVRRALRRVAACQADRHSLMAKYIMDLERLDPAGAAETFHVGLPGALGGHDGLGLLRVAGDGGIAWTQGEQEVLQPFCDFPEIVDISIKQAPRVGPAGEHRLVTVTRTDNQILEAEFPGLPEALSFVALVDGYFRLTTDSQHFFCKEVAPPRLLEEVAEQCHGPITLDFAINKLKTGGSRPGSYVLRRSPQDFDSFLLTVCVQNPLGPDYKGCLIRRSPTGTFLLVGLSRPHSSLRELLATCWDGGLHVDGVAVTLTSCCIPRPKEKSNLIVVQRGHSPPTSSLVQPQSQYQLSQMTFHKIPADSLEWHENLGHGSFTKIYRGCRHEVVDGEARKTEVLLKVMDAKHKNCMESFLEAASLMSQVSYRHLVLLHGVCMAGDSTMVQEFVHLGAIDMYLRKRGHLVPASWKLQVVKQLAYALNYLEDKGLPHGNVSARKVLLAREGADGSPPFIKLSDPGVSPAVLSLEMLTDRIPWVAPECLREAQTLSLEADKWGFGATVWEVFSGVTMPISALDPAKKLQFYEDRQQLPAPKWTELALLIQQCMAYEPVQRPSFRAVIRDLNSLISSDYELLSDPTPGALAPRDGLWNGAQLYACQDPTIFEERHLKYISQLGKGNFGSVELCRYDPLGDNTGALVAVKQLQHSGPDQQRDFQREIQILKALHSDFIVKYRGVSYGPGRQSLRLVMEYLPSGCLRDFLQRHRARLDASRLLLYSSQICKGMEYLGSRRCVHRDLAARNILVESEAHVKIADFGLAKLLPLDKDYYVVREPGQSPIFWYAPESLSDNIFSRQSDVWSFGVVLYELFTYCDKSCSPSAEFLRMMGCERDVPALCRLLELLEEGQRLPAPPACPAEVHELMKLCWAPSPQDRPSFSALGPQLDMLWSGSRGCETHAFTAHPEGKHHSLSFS
Procedure, shortened: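 Recombinant JAK3 at 1 nM in HEPES pH 7.4 buffer with 10 mM MgCl2, 1 mM DTT and 0.01% BSA. Substrates were 5 μM ATP (200 uCi/μmole) and 1 μM poly(Glu)4Tyr, reacted 20 min at 25 °C. Stopped with TCA, and 33P incorporation counted on glass fiber filters.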

c-Met = c-Met (Homo sapiens, UniProt P08581); test: c-Met Inhibition Assay, coupled enzyme system; conditions: enzyme inhibition data (Ki), Table 11
Chain of c-Met (P08581 25-1390): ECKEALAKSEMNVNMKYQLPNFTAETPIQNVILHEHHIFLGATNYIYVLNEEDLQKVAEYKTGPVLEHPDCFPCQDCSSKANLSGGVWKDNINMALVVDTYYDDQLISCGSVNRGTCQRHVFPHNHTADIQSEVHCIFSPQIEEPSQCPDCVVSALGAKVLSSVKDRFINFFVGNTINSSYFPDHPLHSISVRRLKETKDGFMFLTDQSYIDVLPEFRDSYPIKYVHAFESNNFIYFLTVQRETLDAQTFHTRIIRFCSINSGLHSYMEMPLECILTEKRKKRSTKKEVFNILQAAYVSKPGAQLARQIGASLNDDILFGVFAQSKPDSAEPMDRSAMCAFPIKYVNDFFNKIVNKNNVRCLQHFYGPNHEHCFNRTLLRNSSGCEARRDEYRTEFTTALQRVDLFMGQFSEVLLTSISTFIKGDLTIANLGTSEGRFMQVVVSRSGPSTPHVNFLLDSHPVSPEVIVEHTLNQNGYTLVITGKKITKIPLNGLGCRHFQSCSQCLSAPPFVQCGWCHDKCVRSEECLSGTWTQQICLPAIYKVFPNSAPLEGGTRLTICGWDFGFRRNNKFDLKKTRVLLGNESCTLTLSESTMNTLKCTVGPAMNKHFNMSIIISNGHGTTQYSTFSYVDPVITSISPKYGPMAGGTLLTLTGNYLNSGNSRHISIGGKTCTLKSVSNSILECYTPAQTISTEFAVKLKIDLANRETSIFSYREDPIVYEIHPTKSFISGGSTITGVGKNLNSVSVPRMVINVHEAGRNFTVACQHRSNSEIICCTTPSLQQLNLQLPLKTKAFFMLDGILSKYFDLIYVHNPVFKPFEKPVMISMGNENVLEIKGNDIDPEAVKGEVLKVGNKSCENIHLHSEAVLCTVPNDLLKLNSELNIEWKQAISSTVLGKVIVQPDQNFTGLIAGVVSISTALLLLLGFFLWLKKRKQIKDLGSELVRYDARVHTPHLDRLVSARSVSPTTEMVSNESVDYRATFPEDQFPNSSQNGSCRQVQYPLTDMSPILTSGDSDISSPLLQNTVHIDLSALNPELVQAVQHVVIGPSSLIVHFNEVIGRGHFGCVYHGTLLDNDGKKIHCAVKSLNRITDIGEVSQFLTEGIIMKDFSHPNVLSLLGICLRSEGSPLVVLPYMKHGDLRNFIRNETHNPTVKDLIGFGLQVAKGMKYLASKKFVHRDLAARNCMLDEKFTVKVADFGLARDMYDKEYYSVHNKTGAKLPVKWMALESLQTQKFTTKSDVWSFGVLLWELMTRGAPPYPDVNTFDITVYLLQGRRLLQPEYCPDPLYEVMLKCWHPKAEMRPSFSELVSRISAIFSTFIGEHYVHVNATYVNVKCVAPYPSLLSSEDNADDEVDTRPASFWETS
Procedure, shortened: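 Pyruvate kinase/lactate dehydrogenase-coupled NADH assay in HEPES pH 7.5 with 80 nM c-Met, 200 μM ATP and 10 μM polyGluTyr at 30° C. Compound (0.006–12.5 μM final, 12-point) preincubated 10 min before ATP start; rates over 10 min gave Ki.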

Row | Ki (Itk) | Ki (JAK3) | Ki (c-Met) | Structure (SMILES)
1 | 0.5 to 5 µM | > 5 µM | < 0.5 µM | CCN(C)c1ccc(-c2cnc3c(-c4ccccn4)c(N)nn3c2)cn1 [Compound V-171]
2 | 0.5 to 5 µM | > 5 µM | < 0.5 µM | CC(C)N(C)C(=O)c1cccc(-c2cnc3c(-c4ccccn4)c(N)nn3c2)n1 [Compound V-103]
3 | 0.5 to 5 µM | > 5 µM | 0.5 to 5 µM | CN(CCc1ccccn1)c1ccc(-c2cnc3c(-c4ccccn4)c(N)nn3c2)cn1 [Compound V-168]
4 | 0.5 to 5 µM | 0.5 to 5 µM | 0.5 to 5 µM | Cc1cnc2c(-c3cc(N4CCC(C(N)=O)CC4)ncn3)c(N)nn2c1 [Compound V-341]
5 | 0.5 to 5 µM | > 5 µM | 0.5 to 5 µM | CCOC(=O)c1c(N)nn2cc(-c3ccccn3)cnc12 [Compound V-25]
6 | 0.5 to 5 µM | > 5 µM | < 0.5 µM | Nc1nn2cc(-c3ccncc3)cnc2c1-c1ccccc1 [Compound V-187]
7 | < 0.5 µM | < 0.5 µM | < 0.5 µM | Cc1cnc2c(-c3cc(N4CCCC(C)C4)ncn3)c(N)nn2c1 (stereo not drawn) [Compound V-339]
8 | 0.5 to 5 µM | > 5 µM | 0.5 to 5 µM | Nc1nn2cc(CCCN3CCSCC3)cnc2c1-c1ccccn1 [Compound V-328]
9 | 0.5 to 5 µM | > 5 µM | 0.5 to 5 µM | CCOC(=O)c1c(N)nn2cc(CCCOC(C)=O)cnc12 [Compound V-48]
10 | 0.5 to 5 µM | > 5 µM | 0.5 to 5 µM | CN(CCC#N)C(=O)c1c(N)nn2cc(-c3ccncn3)cnc12 [Compound V-40]
11 | < 0.5 µM | 0.5 to 5 µM | < 0.5 µM | Nc1nn2cc(-c3ccc(C(=O)N4CCC(N)CC4)cn3)cnc2c1-c1ccccn1 [Compound V-69]
12 | < 0.5 µM | 0.5 to 5 µM | < 0.5 µM | CCN(CCCCN)C(=O)c1cccc(-c2cnc3c(-c4ccccn4)c(N)nn3c2)n1 [Compound V-110]
13 | 0.5 to 5 µM | > 5 µM | 0.5 to 5 µM | CC(=O)N1CCN(c2ncccc2-c2cnc3c(-c4ccccn4)c(N)nn3c2)CC1 [Compound V-269]
14 | 0.5 to 5 µM | > 5 µM | 0.5 to 5 µM | Cc1ccc(-c2cnc3c(-c4ccccc4Br)c(N)nn3c2)cc1 [Compound V-31]
15 | 0.5 to 5 µM | > 5 µM | < 0.5 µM | COCCNc1cc(-c2cnc3c(-c4ccccn4)c(N)nn3c2)ccn1 [Compound V-245]
16 | 0.5 to 5 µM | > 5 µM | 0.5 to 5 µM | Nc1nn2cc(-c3ccccc3C(F)(F)F)cnc2c1-c1ccccn1 [Compound V-5]
17 | 0.5 to 5 µM | > 5 µM | 0.5 to 5 µM | Nc1nn2cc(-c3ccccc3OCc3ccccc3)cnc2c1-c1ccccn1 [Compound V-56]
18 | 0.5 to 5 µM | > 5 µM | 0.5 to 5 µM | CCN(CC)CCN(C)CCCc1cnc2c(-c3ccccn3)c(N)nn2c1 [Compound V-321]
19 | 0.5 to 5 µM | > 5 µM | 0.5 to 5 µM | CC(C)N1CCN(CCCc2cnc3c(-c4ccccn4)c(N)nn3c2)CC1 [Compound V-331]
20 | 0.5 to 5 µM | 0.5 to 5 µM | 0.5 to 5 µM | Nc1nn2cc(-c3ccncc3)cnc2c1C(=O)c1ccccc1 [Compound V-131]
